Results taken from publication PMC3565751, “The Feasibility of Enzyme Targeted Activation for Amino Acid/Dipeptide Monoester Prodrugs of Floxuridine; Cathepsin D as a Potential Targeted Enzym” (Molecules, 2012).

What was measured:
[1] = test system: Capan-2 cell homogenates and cytosolic enzyme extracts; test: Prodrug stability in cytosolic enzyme extract versus whole cell homogenate of Capan-2 cells; type: in vitro ADME
Procedure: In stability studies of test compounds in cell homogenates, the location of enzymes in living cells is not considered and the inaccessible enzymes in vivo condition may be able to degrade those analytes in this in vitro setting. Therefore, the result of prodrug stabilities in cell homogenate may be different to one in vivo, where all enzymes are arranged in all specific locations. The experiments of prodrug activation concerning the location of enzymes in cells were performed at 37 °C in Capan-2 cell homogenates and in cytosolic enzyme extracts. For the comparison purpose, the same experiments were performed at 37 °C in Caco-2 cell homogenates and in cytosolic enzyme extracts. […] The difference between them was minimal (1.4- to 2.5 fold). […] In Capan-2 cells, the stabilities of 5′-O-L-phenylalanyl-L-glycylfloxuridine and 5′-O-L-phenylalanylfloxuridine were improved 7.4- and 7.3-fold, while the ones of 5′-O-L- phenylalanyl-L-tyrosylfloxuridine and 5′-O-L-glycyl-L-leucylfloxuridine were declined 3.9- and 6.0-fold, respectively.
(§1) Preparation of Cytosolic Enzyme Extract. Confluent Caco-2 cells and Capan-2 cells (2 plates; 150 mm × 25 mm plate) were rinsed with saline twice. The cells were washed off with 1 mL of pH 7.4 phosphate buffer (10 mmol/L) and the enzymes were extracted through 30 gauge needle 10 times in ice-cold bath. Cell suspension was spun at 10,000 × g for 2 h at 4 °C and the supernatant was spun at 39,000 × g for 2 h at 4 °C. Protein amount was quantified with the Bio-Rad (Hercules, CA, USA) DC Protein Assay using bovine serum albumin as a standard. The protein amount was adjusted to 500 µg/mL and the hydrolysis reactions were carried out in 96-well plates (Corning). Caco-2 cells and Capan-2 cell suspensions (250 µL) were placed in triplicate wells either presence or absence of various inhibitors, the reactions were started with the addition of substrate (200 µM), and wells were incubated at 37 °C for 120 min (time points; 0, 5, 10, 30, 60, and 120 min). At each time point, aliquot sample (35 µL) was removed and added to 150 µL of acetonitrile (ACN) with 0.1% TFA to prevent the further degradation. The mixtures were filtered with a 0.45 µm filters at 1,000 × g for 10 min at 4 °C. The filtrate wasthen analyzed via reverse-phaseHPLC.
(§2) The initial rates of hydrolysis were used to obtain the apparent first-order rate constants and estimate the half-lives. The apparent first-order degradation rate constants of various floxuridine prodrugs at 37 °C were determined by plotting the logarithm of prodrug remaining as a function of time. The slopes of these plots are related to the rate constant, k, and given by:
(§3) The concentrations of prodrugs and their metabolites were determined on a Waters HPLC system (Waters, Inc., Milford, MA, USA). The HPLC system consisted of two Waters pumps (model 515), a Waters autosampler (WISP model 712), and a Waters UV detector (996 photodiode array detector). The system was controlled by Waters Millennium 32 software (version 3.0.1). Samples were injected onto a Waters Xterra C18 reverse-phase column (5 µm, 4.6 × 250 mm) equipped with a guard column. The compounds were eluted using gradient method. All prodrugs were run with the solvent B gradient changing 0% to 56% at a rate of 2%/min during a 28-min run. Standard curves generated for each prodrug and their parent drugs were used for quantitation of integrated area under peaks.

[2] = test system: Capan-2 cell homogenate; test: Prodrug hydrolysis in Capan-2 cell homogenate with the presence and the absence of selective enzyme inhibitors; type: in vitro ADME; settings: 37 °C
Procedure: Hydrolysis StudiesPreparation of Capan-2 cell homogenates. Preparation of cell homogenates has been reported previously. Confluent Capan-2 cells (2 plates; 150 mm × 25 mm plate) were rinsed with saline twice. The cells were washed off with 5 mL of pH 7.4 phosphate buffer (10 mmol/L) and the lysed cells by ultrasonication (Micro ultrasonic cell disrupter Model KT40, Kontes, Vineland, NJ, USA) were spun down by centrifugation.
as §1, §2
k = 2.303 × slope (log C vs. time) (1)
The degradation half-lives were then estimated by the equation: […]
as §3

[3] = test system: Capan-2 cell lines; test: Cell proliferation (XTT) assay; type: cell-based; settings: 4 mmol/L, 4 h drug treatment
Procedure: The percentage of growth inhibition for amino acid/dipeptide monoester prodrugs of floxuridine in Capan-2 cell was evaluated via 2,3-bis[2-methoxy-4-nitro-5-sulfophenyl]-2H-tetrazolium-5-carboxanilideinner salt (XTT) assays (Figure 3). The growth inhibitory effect of tested floxuridine prodrugs after 4 h drug treatment range from 0.0–91.1% at 4 h, 0.0–84.2% at 8 h, and 41.8–84.8% at 24 h in Capan-2 cell lines. […] While specific activation enzymes for 5′-O-L-leucyl-L-glycylfloxuridine and 5′-O-L-phenylalanylfloxuridine have not been identified, those enzymes may be highly localized at the plasma membrane and cytosol. Thus, the activation of those prodrugs took place immediately after translocation of prodrugs into the cells and started inhibiting tumor growth. Leucine and phenylalanine are reportedly good substrates for aminopeptidases and carboxylesterase, respectively.
Cell proliferation studies were conducted with Capan-2 cell lines. The cells were seeded into 96-well plates at […] per well and allowed to attach/grow for 24 h before drug solutions were added. The culture medium (RPMI-1640 + 10% fetal bovine serum) was removed and the cells were gently washed once with sterile pH 6.0 uptake buffer (145 mM NaCl, 0.5 mM MgCl2, 1 mM NaH2PO4, 1 mM CaCl2, 3 mM KCl, 5 mM glucose, and 5 mM MES). Floxuridine prodrugs and floxuridine were diluted in pH 6.0 uptake buffer to 4 mmol/L using no drug as a 100% viability control. The wash buffer was removed and 25 µL drug solution per well were added and incubated at 37 °C for 4 h in the cell incubator. After this time, the drug solutions were removed and the cells were again gently washed twice with sterile uptake buffer. RPMI-1640 was then added to each well after washing. The cells were allowed to recover for 4 h, 8 h, or 24 h before evaluating cell viability via 2,3-bis[2-methoxy-4-nitro-5-sulfophenyl]-2H-tetrazolium-5-carboxanilide inner salt (XTT) assays. […] Absorbance readings at 450 nm were recorded.

[4] = design: method as in PMID 18719516; settings: pH 7.4 phosphate buffer; mean ± s.d.; ref [50]; cited from earlier work
[5] = target: T1, human cathepsin D (Homo sapiens, UniProt P07339); test: Prodrug stability with human cathepsin D; type: biochemical; settings: pH 7.4 phosphate buffer, 37 °C, 200 µM substrate
T1 construct: cathepsin B (human liver), and cathepsin D (human liver) were obtained from Sigma Chemical Co; purchased Sigma Chemical Co (St. Louis, MO, USA); host or cells: human liver (tissue-derived)
T1 sequence (P07339 169-412 limits assumed): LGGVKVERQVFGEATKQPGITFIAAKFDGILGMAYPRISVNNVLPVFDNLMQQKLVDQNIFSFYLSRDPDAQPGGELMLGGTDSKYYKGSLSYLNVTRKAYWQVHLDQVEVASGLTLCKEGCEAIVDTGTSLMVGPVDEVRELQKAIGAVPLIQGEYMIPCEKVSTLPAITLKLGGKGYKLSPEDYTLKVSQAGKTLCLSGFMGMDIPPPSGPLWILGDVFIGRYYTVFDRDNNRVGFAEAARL
T1 sequence (P07339 65-162 limits assumed): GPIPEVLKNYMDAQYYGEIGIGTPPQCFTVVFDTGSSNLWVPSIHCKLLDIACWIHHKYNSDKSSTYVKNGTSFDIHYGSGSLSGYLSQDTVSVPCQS
Source text: (§4) The high expression levels of cathepsins in tumors have been reported. It has been investigated if the protein levels of cathepsin B and D would associate with pathological parameters in order to assess the difference in protein levels of cathepsins as possible tumor biomarkers. Cathepsin B, one of the highest gene expressions in enzymes of Capan-2 cell, is a cysteine endopeptidase and reportedly has similar activity to carboxypeptidase and peptidyl-dipeptidase. On the other hand, cathepsin D has been reported that it preferentially hydrolyzes the peptide bond of bulky hydrophobic amino acids and the peptide bond between Phe-Phe of Bz-Arg-Gly-Phe-Phe-Pro-4MbNA [75, 76, 77]. The metabolic stability of floxuridine prodrugs was assessed using human cathepsin B and D in pH 7.4 phosphate buffer. […] However, the enzyme specificity between cathepsin B and D in prodrug activation for those two prodrugs was not observed.
(§5) Prodrug stability with Cathepsin B and D. Lyophilized enzyme powder was dissolved and adjusted to 2.5 mg/mL of pure enzyme, human cathepsin B and D. The hydrolysis reactions were immediately started by adding substrates (200 µM) in 96-well plates (Corning). The reactions were carried out at 37 °C for 120 min (time points; 0, 5, 10, 30, 60, and 120 min). At each time point, aliquot sample (35 µL) was removed and added to 150 µL of acetonitrile (ACN) with 0.1% TFA. The mixtures were filtered with a 0.45 µm filters at 1,000 × g for 10 min at 4 °C. The filtrate was then analyzed via reverse-phase HPLC.
as §2, with “The slopes of these plots are related to the rate constant, k, and given by:” left out
(§6) The concentrations of prodrugs and their metabolites were determined on a Waters HPLC system (Waters, Inc., Milford, MA, USA). […] Standard curves generated for each prodrug and their parent drugs were used for quantitation of integrated area under peaks.

[6] = target: T2, human cathepsin B (Homo sapiens, UniProt P07858); test: Prodrug stability with human cathepsin B; type: biochemical; settings: pH 7.4 phosphate buffer, 37 °C, 200 µM substrate
T2 construct: cathepsin B (human liver), and cathepsin D (human liver) were obtained from Sigma Chemical Co; purchased Sigma Chemical Co (St. Louis, MO, USA); host or cells: human liver (tissue-derived)
Source text: as §4, §5
as §2, with “The slopes of these plots are related to the rate constant, k, and given by:” left out
as §6

Hydrolysis products detected in cell homogenates and cytosolic enzyme extracts [1]: only floxuridine was detected | Fold longer half life (stability improved) in cytosolic extract than in Capan-2 cell homogenate ([1]; 37 °C, pH 7.4 phosphate buffer): 7.4 fold | Half Life, DPP 3 Inhibitor ([2]; Capan-2 cell homogenate with 1,10-phenanthroline, pH 7.4): 30.1 ± 10.0 min | Half Life, TPP 2 Inhibitor ([2]; Capan-2 cell homogenate with H-Ala-Ala-Phe-CMK CF3CO2H, pH 7.4): 19.6 ± 0.4 min | Half Life, Cathepsin D Inhibitor ([2]; Capan-2 cell homogenate with pepstatin A, pH 7.4): 10.2 ± 3.0 min | Half Life, Aminopeptidase Inhibitor ([2]; Capan-2 cell homogenate with puromycin, pH 7.4): 25.7 ± 0.4 min | Half Life, Capan-2 Cell Homogenate ([2]; no inhibitor, pH 7.4 phosphate buffer, 200 µM substrate, mean ± s.d.): 4.3 ± 0.9 min | Stability (degradation) against cathepsin D compared with absence of enzyme [5]: significant degradation | Stability (degradation) against cathepsin B compared with absence of enzyme [6]: significant degradation
SMILES: N[C@@H](Cc1ccccc1)C(=O)NCC(=O)OC[C@H]1O[C@@H](n2cc(F)c(=O)[nH]c2=O)C[C@@H]1O [5'-O-L-phenylalanyl-L-glycyl-floxuridine]
Growth inhibition of cancer cells at 4 h and 8 h [3]: did not exhibit the growth inhibition of cancer cells | Half Life, Phosphate Buffer pH 7.4 [4]: 132.1 ± 10.2 min
